The values below come from PMC4027206, “Crystal structure of Saccharomyces cerevisiae mitochondrial GatFAB reveals a novel subunit assembly in tRNA-dependent amidotransferases” (Nucleic Acids Research, 2014).

In assay [1] the target is T1, GatFABF24–183 (pseudo-wild-type, full-length GatFAB) (Saccharomyces cerevisiae, UniProt Q03557).
T1 construct: gene HER2; heterotrimer; E. coli host; with Glutamyl-tRNA(Gln) amidotransferase subunit B, mitochondrial; Glutamyl-tRNA(Gln) amidotransferase subunit F, mitochondrial
T1 sequence (Q03557 1-464): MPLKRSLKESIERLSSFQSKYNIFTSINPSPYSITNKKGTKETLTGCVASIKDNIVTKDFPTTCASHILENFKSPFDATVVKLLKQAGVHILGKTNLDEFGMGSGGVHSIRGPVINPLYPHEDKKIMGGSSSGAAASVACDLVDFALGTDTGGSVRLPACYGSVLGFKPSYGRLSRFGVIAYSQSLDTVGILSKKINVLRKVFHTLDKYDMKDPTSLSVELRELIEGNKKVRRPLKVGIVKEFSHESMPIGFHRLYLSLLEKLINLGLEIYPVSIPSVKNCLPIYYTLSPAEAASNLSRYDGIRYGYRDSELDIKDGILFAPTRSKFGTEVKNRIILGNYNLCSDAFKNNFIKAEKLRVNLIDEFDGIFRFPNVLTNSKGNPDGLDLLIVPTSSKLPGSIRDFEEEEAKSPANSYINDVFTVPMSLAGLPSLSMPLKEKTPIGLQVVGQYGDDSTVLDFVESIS
T1 sequence (P33893 16-541 partner): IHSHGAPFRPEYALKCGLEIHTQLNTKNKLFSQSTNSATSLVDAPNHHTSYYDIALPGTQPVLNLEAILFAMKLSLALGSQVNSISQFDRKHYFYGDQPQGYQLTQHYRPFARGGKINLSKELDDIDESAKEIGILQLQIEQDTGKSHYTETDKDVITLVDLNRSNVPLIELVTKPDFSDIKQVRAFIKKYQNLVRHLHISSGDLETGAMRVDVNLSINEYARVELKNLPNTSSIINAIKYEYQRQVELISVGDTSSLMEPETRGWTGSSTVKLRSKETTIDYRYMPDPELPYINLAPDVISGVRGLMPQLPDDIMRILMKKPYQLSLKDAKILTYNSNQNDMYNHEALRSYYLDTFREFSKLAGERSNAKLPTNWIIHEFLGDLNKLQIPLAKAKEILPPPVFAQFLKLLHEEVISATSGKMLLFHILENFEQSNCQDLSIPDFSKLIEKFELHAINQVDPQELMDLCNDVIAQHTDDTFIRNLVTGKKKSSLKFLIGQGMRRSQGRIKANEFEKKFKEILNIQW
T1 sequence (P53260 24-183 partner): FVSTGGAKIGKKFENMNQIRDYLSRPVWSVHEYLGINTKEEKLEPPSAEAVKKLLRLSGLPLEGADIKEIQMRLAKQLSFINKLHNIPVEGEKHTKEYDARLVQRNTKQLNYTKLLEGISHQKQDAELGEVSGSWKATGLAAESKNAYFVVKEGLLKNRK
The experiment in a line: glutaminase assay, […]Gln, TLC. It counts as biochemical. Particulars: 50 μM [14C]L-glutamine; Glu-tRNA^Gln, ATP, 12 mM MgCl2, pH 7.2, 37°C; labelled compound.

The target in another assay is T2, GatFABΔHY (Saccharomyces cerevisiae, UniProt Q03557).
T2 construct: gene HER2; heterotrimer; E. coli host; with Glutamyl-tRNA(Gln) amidotransferase subunit B, mitochondrial; Glutamyl-tRNA(Gln) amidotransferase subunit F, mitochondrial
T2 sequence (Q03557 1-464): T1 sequence (Q03557 1-464)
T2 sequence (P33893 16-329 partner): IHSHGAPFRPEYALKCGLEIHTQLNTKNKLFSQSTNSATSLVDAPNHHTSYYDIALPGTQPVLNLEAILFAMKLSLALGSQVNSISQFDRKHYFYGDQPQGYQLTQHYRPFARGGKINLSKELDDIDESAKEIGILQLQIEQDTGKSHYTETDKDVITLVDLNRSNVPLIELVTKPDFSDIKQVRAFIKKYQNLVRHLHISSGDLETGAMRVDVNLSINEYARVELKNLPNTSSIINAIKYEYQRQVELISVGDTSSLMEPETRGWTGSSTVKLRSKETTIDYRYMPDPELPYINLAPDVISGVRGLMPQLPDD
T2 sequence (P53260 24-183 partner): T1 sequence (P53260 24-183 partner)
The experiment in a line: X-ray crystal structure, […] Å. It counts as binding. Particulars: 10 mM glutamine added before crystallization; GatA glutaminase site (R334, D418, near S154).

Take `NC(=O)CC[C@H](N)C(=O)O` [glutamine]: the “glutaminase assay, [14C]Gln, TLC” value in assay [1] was “reduced activities in both GatA-mediated glutamine-hydrolysis and GatB-mediated transamidation when compared to that of the full-length”. Also, the “X-ray crystal structure, 2.0 Å” value at GatFABΔHY is “the glutamine molecule is bound to the glutaminase site of GatA”.
